Reference: patent US20090148342A1, “Hypochlorite Technology” (priority 2007, published 2009)

Tests used:
Klebsiella species = experiment: Ceramic tile disinfection with powdered hypochlorite; conditions: tile sprayed with 2% solution; contact time four minutes (positive control)
contaminated slides = experiment: Continuous disinfection of contaminated slides by vapor emitter; assay type: cell-based; conditions: 6000 ppm sodium hypochlorite at pH 9; contaminated slides exposed and evaluated every couple of days
Text: Another approach is increasing the pH of the bleach solution to reduce chlorine. See in the Examples Section below. An isobaric line for constant hypochlorous acid vapor pressure can be calculated from literature values of various equilibrium constants for various concentrations of sodium hypochlorite and pH. Thus, one can maintain the performance of a desired concentration of hypochlorous acid but eliminate chlorine by increasing pH and hypochlorite concentration according to the isobaric line. […] The higher bleach concentrations also allow for smaller volumes of solution since the volume of solution required to provide a certain number of moles of hypochlorous acid decreases as the concentration increases. […] This allows much longer product lifetimes for an emitter. […] In one embodiment, the sodium hypochlorite at about pH 9 is gelled using clay.

Staphococcus species = experiment: Ceramic tile disinfection with powdered hypochlorite; conditions: tile treated with 2% NaOCl (positive control)
Escherica coli = experiment: as above; conditions: tile treated with 2% NaOCl (positive control)
[1] = Stability of thickened dilute hypochlorite at 120° F.; conditions: compared with thickeners of Table XXIV
Dust mite allergen = conditions: ELISA test after treatment for 1 hour; low concentration; cited from earlier work

Structure (SMILES): [Na+].[O-]Cl [NaOCl, sodium hypochlorite]
- bacterial growth on agar plate (Klebsiella species): no bacterial growth
- duration of continuous disinfection (contaminated slides): continuous disinfection for more than a month
- bacterial growth on agar plate (Staphococcus species): no growth
- bacterial growth on agar plate (Escherica coli): no growth

Structure (SMILES): CCCCCCCCCCCCOS(=O)(=O)[O-].[Na+] [sodium lauryl sulfate]
- stability of dilute hypochlorite with surfactant, by comparison [1]: less stable than Vangel ES®

Structure (SMILES): OCl [hypochlorite ions]
- reduction of dust mite allergen binding (Dust mite allergen): up to 82%
